Experiments:
[1] = assay type: physicochemical
Protocol: A solution of rebaudioside A (>97% pure by HPLC) was prepared in double distilled water (12.5 gm in 50 mL, 25% concentration) by stirring the mixture at 40° C. for 5 minutes. An amorphous form of rebaudioside A was formed by immediately using the clear solution for spray drying with the Lab-Plant spray drier SD-04 instrument (Lab-Plant Ltd., West Yorkshire, U.K.). The solution was fed through the feed pump into the nozzle atomizer which atomized it into a spray of droplets with the help of a constant flow of nitrogen/air. […] This dry powder (11-12 g, H2O 6.74%) was discharged continuously from the drying chamber and was collected in a bottle.

[2] = Rate of dissolution of rebaudioside A forms in H2O at 25° C.; assay type: physicochemical
[3] = Sweetness level as sucrose equivalent
[4] = Sensory evaluation of sweetness linger and sugar-like taste by expert panel; assay type: in vivo; design: key: 0: no sweetness linger; 1: very slight sweetness linger; 2: slight sweetness linger; 3: moderate sweetness linger; 4: moderately high sweetness linger; 5: high sweetness linger
Protocol: As used herein, the phrases “sugar-like characteristic,” “sugar-like taste,” “sugar-like sweet,” “sugary,” and “sugar-like” are synonymous. […] These characteristics are dimensions in which the taste of sucrose is different from the tastes of natural and synthetic high-potency sweeteners. Whether or not a characteristic is more sugar-like is determined by expert sensory panel assessments of sugar and compositions comprising at least one natural and/or synthetic high-potency sweetener, both with and without a sweet taste improving composition. Such assessments quantify similarities of the characteristics of compositions comprising at least one natural and/or synthetic high-potency sweetener, both with and without a sweet taste improving composition, with those comprising sugar. Suitable procedures for determining whether a composition has a more sugar-like taste are well known in the art.
In a particular embodiment, a panel of assessors is used to measure the reduction of sweetness linger. […] A decrease in score for a time point measured after the sample has cleared the mouth indicates there has been a reduction in sweetness perception. […]

| Compound | Solubility in water [1] | Rate of dissolution in H2O at 25° C. ([2]; H2O, 25° C.) | Rate of dissolution in H2O at 25° C. ([2]; in words) | Sucrose equivalent ([3]; 180 ppm rebaudioside A in diluted beverage) | Sucrose equivalent ([3]; 400 ppm REBA) | Sweetness linger rating ([4]; control: 400 ppm REBA in citric acid/potassium citrate composition, no additive) | Sweetness linger rating ([4]; control: 500 ppm REBA in carbon-treated water, phosphoric acid pH 2.4-2.5, no additive) |
| --- | --- | --- | --- | --- | --- | --- | --- |
| C=C1C[C@@]23CC[C@H]4[C@@](C)(CCC[C@@]4(C)C(=O)O[C@@H]4O[C@H](CO)[C@@H](O)[C@H](O)[C@H]4O)[C@@H]2CC[C@]1(O[C@@H]1O[C@H](CO)[C@@H](O)[C@H](O[C@@H]2O[C@H](CO)[C@@H](O)[C@H](O)[C@H]2O)[C@H]1O[C@@H]1O[C@H](CO)[C@@H](O)[C@H](O)[C@H]1O)C3 [Form 3, rebaudioside A] |  | (>30%/ %/5 minutes | High |  |  |  |  |
| C=C1C[C@@]23CC[C@H]4[C@@](C)(CCC[C@@]4(C)C(=O)O[C@@H]4O[C@H](CO)[C@@H](O)[C@H](O)[C@H]4O)[C@@H]2CC[C@]1(O[C@@H]1O[C@H](CO)[C@@H](O)[C@H](O[C@@H]2O[C@H](CO)[C@@H](O)[C@H](O)[C@H]2O)[C@H]1O[C@@H]1O[C@H](CO)[C@@H](O)[C@H](O)[C@H]1O)C3 [REBA, rebaudioside A] |  |  |  | 5 % sucrose | 8 g sucrose | 5 | 5 |

More lines, main results first:

| Solubility in water [1] | Rate of dissolution in H2O at 25° C. ([2]; H2O, 25° C.) | Rate of dissolution in H2O at 25° C. ([2]; in words) | Compound | Sucrose equivalent ([3]; 180 ppm rebaudioside A in diluted beverage) | Sucrose equivalent ([3]; 400 ppm REBA) | Sweetness linger rating ([4]; control: 400 ppm REBA in citric acid/potassium citrate composition, no additive) | Sweetness linger rating ([4]; control: 500 ppm REBA in carbon-treated water, phosphoric acid pH 2.4-2.5, no additive) |
| --- | --- | --- | --- | --- | --- | --- | --- |
| > 35.0% | (>35.0%/ %/5 minutes | High | C=C1C[C@@]23CC[C@H]4[C@@](C)(CCC[C@@]4(C)C(=O)O[C@@H]4O[C@H](CO)[C@@H](O)[C@H](O)[C@H]4O)[C@@H]2CC[C@]1(O[C@@H]1O[C@H](CO)[C@@H](O)[C@H](O[C@@H]2O[C@H](CO)[C@@H](O)[C@H](O)[C@H]2O)[C@H]1O[C@@H]1O[C@H](CO)[C@@H](O)[C@H](O)[C@H]1O)C3 [Form 4, rebaudioside A] |  |  |  |  |
|  | (<30%/ %/5 minutes | Intermediate | C=C1C[C@@]23CC[C@H]4[C@@](C)(CCC[C@@]4(C)C(=O)O[C@@H]4O[C@H](CO)[C@@H](O)[C@H](O)[C@H]4O)[C@@H]2CC[C@]1(O[C@@H]1O[C@H](CO)[C@@H](O)[C@H](O[C@@H]2O[C@H](CO)[C@@H](O)[C@H](O)[C@H]2O)[C@H]1O[C@@H]1O[C@H](CO)[C@@H](O)[C@H](O)[C@H]1O)C3 [Form 2, rebaudioside A] |  |  |  |  |
|  | (<0.2%/ %/60 minutes | Very low | C=C1C[C@@]23CC[C@H]4[C@@](C)(CCC[C@@]4(C)C(=O)O[C@@H]4O[C@H](CO)[C@@H](O)[C@H](O)[C@H]4O)[C@@H]2CC[C@]1(O[C@@H]1O[C@H](CO)[C@@H](O)[C@H](O[C@@H]2O[C@H](CO)[C@@H](O)[C@H](O)[C@H]2O)[C@H]1O[C@@H]1O[C@H](CO)[C@@H](O)[C@H](O)[C@H]1O)C3 [Form 1, rebaudioside A] |  |  |  |  |

Reference: US8435587B2, “High-potency sweetener composition with long-chain primary aliphatic saturated alcohol and compositions sweetened therewith” (The Coca-Cola Company, priority 2005, dated 2013)
